Laboratory results from patent publication US6403602B1 (priority 1997, dated 2002).
Structures can show the parent of a compound that is named as a salt. Where two headings read alike, the source gives them in different places.

What was measured:
[1] = target: mu opioid receptors (Cavia porcellus, UniProt A0ACM8Q262); assay type: binding, guinea pig; settings: read-out: Ki μ [^3H]DAMGO
[2] = target: T1, delta receptors (Cavia porcellus, UniProt A0A286XTF2); assay: biochemical; assay type: binding, guinea pig
T1 construct: The brains were then homogenized in 50 mM Tris HCl, buffer pH 7.7, using a Polytron; from tissue; host or cells: guinea pig brain homogenate (membrane pellet)
T1 sequence (A0A286XTF2 1-366): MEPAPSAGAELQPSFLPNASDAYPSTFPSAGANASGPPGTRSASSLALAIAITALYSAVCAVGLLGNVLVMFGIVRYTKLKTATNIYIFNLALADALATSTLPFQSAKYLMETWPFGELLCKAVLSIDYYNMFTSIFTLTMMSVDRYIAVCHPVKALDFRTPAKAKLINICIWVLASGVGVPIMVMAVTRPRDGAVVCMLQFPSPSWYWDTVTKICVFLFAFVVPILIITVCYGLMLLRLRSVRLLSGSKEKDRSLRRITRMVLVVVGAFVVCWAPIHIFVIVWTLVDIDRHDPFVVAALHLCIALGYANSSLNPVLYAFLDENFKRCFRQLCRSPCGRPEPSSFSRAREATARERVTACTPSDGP

[3] = system: κ2 sites; assay type: binding, guinea pig
[4] = system: electrically stimulated guinea pig ileum; assay: tissue or blood; assay type: cell-based
[5] = system: mu receptors; assay type: cell-based, guinea pig
[6] = system: electrically stimulated mouse vas deferens; assay: tissue or blood; assay type: cell-based
[7] = target: T2, delta receptors (Mus musculus, UniProt P32300); assay type: cell-based
T2 construct: The vas deferens from Swiss-Webster mice (30-35 g) were prepared as described by Hughes et al; from tissue; host or cells: mouse vas deferens (Swiss-Webster)
T2 sequence (P32300 whole entry): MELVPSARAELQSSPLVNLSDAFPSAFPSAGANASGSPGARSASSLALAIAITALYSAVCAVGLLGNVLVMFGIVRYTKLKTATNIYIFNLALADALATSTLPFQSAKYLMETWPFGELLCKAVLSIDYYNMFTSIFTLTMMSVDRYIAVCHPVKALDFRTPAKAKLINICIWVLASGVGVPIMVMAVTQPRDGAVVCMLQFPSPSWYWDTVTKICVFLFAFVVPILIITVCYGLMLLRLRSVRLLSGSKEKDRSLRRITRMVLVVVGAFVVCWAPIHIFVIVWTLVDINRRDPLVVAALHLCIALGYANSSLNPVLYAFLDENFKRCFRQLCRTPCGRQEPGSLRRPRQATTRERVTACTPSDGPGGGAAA

[8] = target: kappa3 receptors; assay type: binding, guinea pig; settings: read-out: Ki κ3 [^3H]NalBzoH
[9] = target: T3, kappa receptors (Cavia porcellus, UniProt P41144); assay type: cell-based, guinea pig
T3 construct: The longitudinal muscle with the myenteric plexus attached was gently separated from the underlying circular muscle; from tissue; host or cells: guinea pig ileum longitudinal muscle with myenteric plexus
T3 sequence (P41144 whole entry): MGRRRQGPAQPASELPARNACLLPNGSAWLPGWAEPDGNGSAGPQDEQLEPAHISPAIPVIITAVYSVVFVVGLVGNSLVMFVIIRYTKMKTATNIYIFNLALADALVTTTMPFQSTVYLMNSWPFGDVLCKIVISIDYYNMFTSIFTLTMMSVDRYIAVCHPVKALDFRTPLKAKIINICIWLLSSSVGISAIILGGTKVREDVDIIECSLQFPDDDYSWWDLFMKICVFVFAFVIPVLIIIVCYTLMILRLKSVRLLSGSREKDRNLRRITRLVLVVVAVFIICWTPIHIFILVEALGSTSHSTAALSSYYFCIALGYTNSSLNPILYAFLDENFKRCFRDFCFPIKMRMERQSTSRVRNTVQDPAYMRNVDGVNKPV

[10] = read-out: Guinea Pig Ileum IC50
[11] = read-out: Mouse Vas Deferens IC50
[12] = read-out: IC50 (nM), Guinea Pigs Ileum
[13] = Cavia porcellus, read-out: Guinea Pig Ileum IC50 (nM)
[14] = Mus musculus, read-out: Mouse Vas Deferens IC50 (nM)
[15] = read-out: IC50 (nM), Mouse Vas Deferens

Sequence of mu opioid receptors (A0ACM8Q262 1-400): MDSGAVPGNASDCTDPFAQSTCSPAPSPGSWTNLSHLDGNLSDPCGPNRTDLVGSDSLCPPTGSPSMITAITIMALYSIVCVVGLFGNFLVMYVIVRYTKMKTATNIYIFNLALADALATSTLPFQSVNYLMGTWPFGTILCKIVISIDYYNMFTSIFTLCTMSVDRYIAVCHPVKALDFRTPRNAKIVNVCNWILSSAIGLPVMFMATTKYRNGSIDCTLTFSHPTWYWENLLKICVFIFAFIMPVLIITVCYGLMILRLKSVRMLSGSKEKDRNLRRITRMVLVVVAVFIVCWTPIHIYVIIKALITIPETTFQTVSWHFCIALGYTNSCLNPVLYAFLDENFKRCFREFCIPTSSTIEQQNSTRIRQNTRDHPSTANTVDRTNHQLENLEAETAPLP

Row | Molecule | IC50 [3] [nM] | IC50 [4, 10] [nM] | Guinea Pig Ileum DR with CTAP [5] | Guinea Pig Ileum Ke of CTAP [5] | Mouse Vas Deferens DR with Naltrindole [7] | Ki [8] [nM] | other results
1 | 3-O-Acetyl-7,8-dihydromorphine-6-O-sulfate [NIDA # 20,265] | > 10000 | 37.7 ± 6.55 | 6.03 ± 0.97 | 20.25 ± 3.92 | 0.924 ± 0.64 | – | Ki [1]: 13.7 nM; Ki ([2]; read-out: Ki δ [^3H]Cl-DPDPE): 325 nM; IC50 [6, 11]: 1110 nM
2 | 3-O-benzoyl-7,8-dihydromorphine-6-O-sulfate [NIDA # 20,275] | > 10000 | 649 ± 131 | 4.03 ± 1.51 | 37.64 ± 18.74 | – | – | Ki [1]: 61.8 nM; Ki ([2]; read-out: Ki δ [^3H]Cl-DPDPE): 1600 nM
3 | CCC12CCN(CC3(O)CC3)C(Cc3ccc(O)cc31)C2(C)C (single isomer, unassigned; (+)) [(+)Bremazocine] | 11.2 | – | – | – | – | 0.1 | Ki [1]: 0.1 nM; Ki ([2]; read-out: Ki δ [^3H]Cl-DPDPE): 0.7 nM
4 | CCC12CCN(CC3CC3)C(C(=O)c3ccc(O)cc31)C2C (single isomer, unassigned; (+)) [(+)EKC-sulfonate] | 133 | – | – | – | – | 5.3 | Ki [1]: 1.1 nM; Ki ([2]; read-out: Ki δ, experiment done with [^3H]DPDPE): 2.6 nM
5 | CCC12CCN(CC3(O)CC3)C(Cc3ccc(O)cc31)C2(C)C (single isomer, unassigned; (-)) [(−)Bremazocine] | 2.2 | – | – | – | – | 0.1 | Ki [1]: 0.1 nM; Ki ([2]; read-out: Ki δ [^3H]Cl-DPDPE): 0.3 nM; IC50 [4, 12]: 0.067 nM; DR with CTAP [5]: 0.83
6 | CC(C)C[C@@H](NC(=O)[C@H](Cc1ccccc1)NC(=O)CNC(=O)[C@@H](C)NC(=O)[C@@H](N)Cc1ccc(O)cc1)C(=O)O [DADLE-OH] | > 10000 | 13.4 | 4.33 | 30.58 | – | 692 | Ki [2]: 0.3 nM; Guinea Pig Ileum DR with Nor-BNI [9]: 1.53; Guinea Pig Ileum Ke of Nor-BNI [9]: 38.13; IC50 [6, 11]: 1.6 nM
7 | C[C@@H](NC(=O)[C@@H](N)Cc1ccc(O)cc1)C(=O)NCC(=O)N(C)[C@@H](Cc1ccccc1)C(=O)NCCO [DAMGO, [D-Ala^2,N-Me-Phe^4,Gly-ol^5]-enkephalin] | – | 8.25 | 4.98 | 25.31 | 0.93 | – | Guinea Pig Ileum Ratio (CTAP) [5]: 1.000; Guinea Pig Ileum DR with Nor-BNI [9]: 1.74; Guinea Pig Ileum Ke of Nor-BNI [9]: 27.67; Guinea Pig Ileum Ratio (Nor-BNI) [9]: 0.002; IC50 [6, 11]: 178 nM
8 | CC1(C)SSC(C)(C)[C@@H](NC(=O)[C@@H](N)Cc2ccc(O)cc2)C(=O)NCC(=O)N[C@@H](Cc2ccc(Cl)cc2)C(=O)N[C@H]1C(=O)O [DPDPE-Cl] | > 10000 | – | – | – | – | 1030 | Ki ([2]; read-out: Ki δ [^3H]Cl-DPDPE): 0.3 nM
9 | CN1CC[C@]23c4c5ccc(O)c4O[C@H]2[C@@H](O)CC[C@H]3[C@H]1C5 [Dihydromorphine, 7,8-Dihydromorphine] | – | – | 12.46 | 17.46 | – | – | IC50 [4, 13]: 42.4 nM; IC50 [6, 14]: 8.11 nM
10 | CN1CC[C@]23c4c5ccc(OS(=O)(=O)O)c4O[C@H]2[C@@H](O)C=C[C@H]3[C@H]1C5 [NIDA # 20,268, morphine-3-O-sulfate] | > 10000 | – | – | – | – | 1690 | Ki [2]: > 10000 nM
11 | C[N+]1(C)CC[C@]23c4c5ccc(OC(=O)c6ccccc6)c4O[C@H]2[C@@H](OS(=O)(=O)[O-])C=C[C@H]3[C@H]1C5 [NIDA # 20,274, 3-O-Benzoyl-N-methylmorphinium-6-O-sulfate] | > 10000 | – | – | – | – | > 10000 | Ki [2]: > 10000 nM; inhibition at 100 µM ([4]; Cavia porcellus, read-out: Guinea pig ileum maximum inhibition): 38%
12 | C=CCN1CC[C@]23c4c5ccc(O)c4O[C@H]2[C@@H](O)C=C[C@H]3[C@H]1C5 [Nalorphine] | – | – | 0.90 | – | – | – | IC50 [4, 13]: 29.2 nM; Guinea Pig Ileum DR with Nor-BNI [9]: 643.9; Guinea Pig Ileum Ke of Nor-BNI [9]: 0.03
13 | O=C1CC[C@@]2(O)[C@H]3Cc4ccc(O)c5c4[C@@]2(CCN3CC2CC2)[C@H]1O5 [Naltrexone-HCl] | 230 | – | – | – | – | 3.8 | –
14 | Oc1ccc2c3c1O[C@H]1[C@@H](O)C=C[C@H]4[C@@H](C2)NCC[C@@]341 [Normorphine] | – | – | 3.02 | 50.25 | 1.06 | – | IC50 [4, 13]: 47.3 nM; Guinea Pig Ileum Ratio (CTAP) [5]: 0.500; Guinea Pig Ileum DR with Nor-BNI [9]: 1.90; Guinea Pig Ileum Ke of Nor-BNI [9]: 26.47; Guinea Pig Ileum Ratio (Nor-BNI) [9]: 0.002; IC50 [6, 14]: 512 nM; Mouse Vas Deferens Ke of Naltrindole [7]: 8.38 ± 0; Mouse Vas Deferens Ratio (Naltrindole) [7]: 0.0025
15 | COc1ccc2c3c1O[C@H]1C(=O)CC[C@@]4(O)[C@@H](C2)N(C)CC[C@]314 [Oxycodone] | – | – | 2.30 | 78.66 | 0.79 | – | IC50 [4, 13]: 324 nM; Guinea Pig Ileum Ratio (CTAP) [5]: 0.322; Guinea Pig Ileum DR with Nor-BNI [9]: 1.45; Guinea Pig Ileum Ke of Nor-BNI [9]: 45.84; Guinea Pig Ileum Ratio (Nor-BNI) [9]: 0.001; IC50 [6, 14]: 6330 nM
16 | CC[C@H](C)[C@H](NC(=O)[C@H](C)NC(=O)[C@H](CC(N)=O)NC(=O)[C@H](CCCCN)NC(=O)[C@H](Cc1ccccc1)NC(=O)[C@H](CC(C)C)NC(=O)[C@@H](NC(=O)[C@@H](NC(=O)[C@H](CC(C)C)NC(=O)[C@@H]1CCCN1C(=O)[C@@H](NC(=O)[C@H](CCC(N)=O)NC(=O)[C@H](CO)NC(=O)[C@H](CCCCN)NC(=O)[C@H](CCC(=O)O)NC(=O)[C@H](CO)NC(=O)[C@@H](NC(=O)[C@H](CCSC)NC(=O)[C@H](Cc1ccccc1)NC(=O)CNC(=O)CNC(=O)[C@@H](N)Cc1ccc(O)cc1)[C@@H](C)O)[C@@H](C)O)C(C)C)[C@@H](C)O)C(=O)N[C@H](C(=O)N[C@@H](CCCCN)C(=O)N[C@@H](CC(N)=O)C(=O)N[C@@H](C)C(=O)N[C@@H](Cc1ccc(O)cc1)C(=O)N[C@@H](CCCCN)C(=O)N[C@@H](CCCCN)C(=O)NCC(=O)N[C@@H](CCC(=O)O)C(=O)O)[C@@H](C)CC [β-Endorphin-OH] | 2050 | 59.4 | 5.86 | 20.87 | 7.98 | 14.5 | Guinea Pig Ileum DR with Nor-BNI [9]: 4.24; Guinea Pig Ileum Ke of Nor-BNI [9]: 6.98; IC50 [6, 11]: 68 nM; Mouse Vas Deferens Ke of Naltrindole [7]: 0.156 ± 0.05
17 | COC(=O)/C=C/C(=O)N[C@@H]1CC[C@@]2(O)[C@H]3Cc4ccc(O)c5c4[C@@]2(CCN3CC2CC2)[C@H]1O5 [β-FNA-HCl] | 66.5 | – | – | – | – | 0.8 | Ki [1]: 0.4 nM
18 | (−) Cyclazocine | 17.3 | 1.05 | 1.00 ± 0.00 | – | – | 0.2 | Ki [1]: 0.1 nM
19 | Dynorphin (1-8) | 1760 | – | – | – | – | 12.9 | IC50 [4, 12]: 71.8 nM; DR with CTAP [5]: 0.98; DR with Nor-BNI [9]: 18.44; Ke of Nor-BNI [9]: 1.21; Ratio (after Ke of Nor-BNI) [9]: 0.050; IC50 [6, 15]: 56.4 nM; DR with Naltrindole [7]: 2.77; Ke of Naltrindole [7]: 0.64; Ratio (after Ke of Naltrindole) [7]: 0.033
20 | Dynorphin (1-13)-NH2 | 24.6 | – | – | – | – | 4.1 | –
21 | Dynorphin (1-13)-OH | 180 | – | – | – | – | 15.4 | –
22 | Dynorphin (1-17)-OH | 29.5 | – | – | – | – | 5.1 | –
23 | Dynorphin A (1-17) | – | – | – | – | – | – | IC50 [4, 12]: 0.95 nM; DR with CTAP [5]: 1.52; Ke of CTAP [5]: 209.89; IC50 [6, 15]: 29.3 nM
24 | Dynorphin B | – | – | – | – | – | – | IC50 [4, 12]: 4.4 nM; DR with CTAP [5]: 1.08; Ke of CTAP [5]: 344.83; IC50 [6, 15]: 39.1 nM
25 | Dynorphin B-OH | 70 | – | – | – | – | 14.2 | –
26 | Dynorphin(1-9)-OH | 324 | 4.69 | 1.13 | 357.14 | 5.71 | 20.2 | IC50 [6, 11]: 12.2 nM; Mouse Vas Deferens Ke of Naltrindole [7]: 0.281
27 | Leu-Enkephalin | > 10000 | 87.3 | 4.63 | 29.38 | 28.07 | 1670 | Guinea Pig Ileum Ratio (CTAP) [5]: 0.659; Guinea Pig Ileum DR with Nor-BNI [9]: 1.94; Guinea Pig Ileum Ke of Nor-BNI [9]: 21.41; Guinea Pig Ileum Ratio (Nor-BNI) [9]: 0.002; IC50 [6, 11]: 7.38 nM; Mouse Vas Deferens Ke of Naltrindole [7]: 0.038; Mouse Vas Deferens Ratio (Naltrindole) [7]: 0.577
28 | Met-Enkephalin | > 10000 | 27.4 | 5.08± | 24.50 | 13.63 | 277 | IC50 [6, 11]: 1.52 nM; Mouse Vas Deferens Ke of Naltrindole [7]: 0.082
29 | [D-Pen^3.5-enkephalin] [DPDPE-OH] | > 10000 | 4130 | 5.64 | 25.83 | 53.11 | > 1000 | Guinea Pig Ileum Ratio (CTAP) [5]: 0.980; Guinea Pig Ileum DR with Nor-BNI [9]: 1.54; Guinea Pig Ileum Ke of Nor-BNI [9]: 50.68; Guinea Pig Ileum Ratio (Nor-BNI) [9]: 0.001; Mouse Vas Deferens Ke of Naltrindole [7]: 0.021; Mouse Vas Deferens Ratio (Naltrindole) [7]: 1.000
